Assay in all cases: inhibition of tumour cell growth, NCI panel, 48 h
Test [1] has as its system LOX IMVI melanoma.
Test [2] has as its system OVCAR-3 ovarian.
Test [3] has as its system MCF7 breast.
The subject of test [4] is NCI-H23 lung.
The subject of test [5] is SF-268 CNS.
Test [6] relates to HOP-62 NSCLC.
Test [7] concerns SK-MEL-28 melanoma.
Test [8] deals with SF-295 CNS.
Test [9] concerns NCI-H226 lung.
The test system of test [10] is NCI-H522 lung.

SMILES strings stand for the structures. “And” between values parts separate entries of the source, which are not always exact repeats. Identical values can stand only once.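 96-well plates; 48 h exposure; 5 concentrations. Endpoints by linear interpolation between flanking doses. Not reached: highest tested concentration assigned. Here, GI50 denotes the concentration required for 50% inhibition of growth. TGI is the concentration that stops growth completely.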 Some results are limits rather than exact numbers.

Regarding `CC(=O)O[C@H]1C(=O)[C@]2(C)[C@@H](OC(=O)OCC(O)CO)C[C@H]3OC[C@@]3(OC(C)=O)[C@H]2[C@H](OC(=O)c2ccccc2)[C@]2(O)C[C@H](OC(=O)[C@H](O)[C@@H](NC(=O)c3ccccc3)c3ccccc3)C(C)=C1C2(C)C` (stereo partly specified), the TGI in test [1] was 25000 nM; in test [2], below 10 nM; in [3], above 39700 nM; in test [4] it was above 43200 nM; in test [5], above 67800 nM; in test [6], 13700 nM. The TGI in test [7] was 39100 nM.
Turning to `O=C(CCN1CCCC1)Nc1ccc2c(NCCCCc3ccccc3)c3ccccc3nc2c1`, the GI50 is 1500 nM in [8]; 1250 nM in test [2]; 1150 nM in test [9]; 1100 nM in test [4]; 1800 nM in [7]. For the same compound, the TGI in [8] turned out to be 2880 nM; in [2], 2570 nM; in test [9] it was 2490 nM; in test [4], 2400 nM; in [7], 3240 nM.
For `N#Cc1ccc(Nc2nc3nc[nH]c3c(=O)[nH]2)cc1`, the TGI in test [1], in [8], in test [2], in test [10], in test [9] and in [3] was above 100000 nM in each case. The TGI in [4], in [5], in test [6] and in test [7] was above 100000 nM each time.
In the case of `CC(=O)OC1CC2(O)C(CCC3(C)C(c4ccc(=O)oc4)CCC32O)C2(C)CCC(O)C=C12` (stereo unspecified), the GI50 in [1] was 37.5 nM; in test [8] it was 37.5 nM; in [9], 80.8 nM; in test [3], 17.3 nM; in [4], 37.5 nM; in test [5], 7.96 nM. In test [6], the GI50 is 12.3 nM. Besides, the TGI is 126 nM and 57.3 nM in test [1]; 98.2 nM and 63.5 nM in test [8]; 22.9 nM in [2]; 6.26 nM in [10]; 184 nM and 183 nM in test [9]; 188 nM and 181 nM in [3]. In addition, the TGI in test [4] was 31.1 nM and 70.4 nM; in [5], 149 nM and 43.7 nM; in test [6], 105 nM and 48 nM; in [7], 289 nM and 171 nM.
On to `CC(C)(C)CC(C)(C)Cc1ccc(OCCOCC[N+](C)(C)Cc2ccccc2)cc1`, for which the GI50 in test [8] was 3620 nM; in [2], 1340 nM; in [10], 1550 nM; in test [9], 1790 nM; in [4], 1450 nM; in [5] it was 1590 nM. Moreover, the GI50 in test [6] is 2310 nM; in [7], 1560 nM. In addition, the TGI is 15500 nM in test [8]; 3090 nM in [2]; 4450 nM in test [10]; 6720 nM in [9]; 3800 nM in test [4]; 3190 nM in test [5]. The TGI came out at 6730 nM in [6] and 3080 nM in test [7].
Take `COc1cc2c(cc1-c1c(C)noc1C)ncc1nc(C3CCCCC3)n(C3CCC(OC(F)F)CC3)c12` (stereo unspecified): the GI50 is 584 nM in test [3]; 2490 nM in test [4]; 5050 nM in test [5]; 1970 nM in test [6]; 1670 nM in test [7]. Also, the TGI in [3], in test [4], in test [5], in test [6] and in test [7] was above 100000 nM throughout.
For the compound `COc1cc(-c2ccc(-c3ccc(C(=N)N)s3)s2)cc(OC)c1OC`, the GI50 in test [8] was 1780 nM; in test [2] it was 2220 nM; in test [3], 1660 nM; in test [4], 2610 nM; in test [5], 1740 nM; in test [6], 1970 nM. In addition, the TGI was 3390 nM in test [8]; 4710 nM in [2]; 4320 nM in [3]; 8040 nM in test [4]; 3490 nM in test [5]; 3970 nM in [6].
`COc1cccc2c1C(=O)c1c(O)c3c(c(O)c1C2=O)C[C@@](O)(C(C)=O)C[C@@H]3OC1CC(N)C(O)C(C)O1` (stereo partly specified): the GI50 in [8] was below 14.7 nM; in [2] it was 66.4 nM; in test [10], below 15.5 nM; in test [4], below 23.5 nM; in test [5], 18.3 nM; in test [6], below 12.7 nM.
Take `Cc1c2cc[n+](C)cc2c(COC2OC(CO)C(O)C2O)c2c3ccccc3n(C)c12` (stereo unspecified): the TGI in [1] is above 100000 nM; in [8], above 100000 nM; in test [2] it was above 100000 nM; in [10], above 100000 nM; in test [9], above 94100 nM; in test [3], above 100000 nM. The TGI is above 100000 nM in test [4], above 97000 nM in [5], above 74200 nM in test [6] and above 100000 nM in test [7].
As for `Cc1c2cc[n+](C)cc2c(C)c2c1[nH]c1ccc(O)cc12`, the TGI was above 96400 nM in [1]; 64700 nM in [8]; above 89300 nM in test [2]; 55900 nM in [10]; 16600 nM in [9]; above 39400 nM in [3]. Moreover, the TGI in test [4] was 63400 nM; in test [5], 23700 nM; in [6], 35000 nM; in test [7] it was 66000 nM.
As for `CCP(=O)(CC)C(Cl)(Cl)C(=O)NC`, the TGI in [1], in test [8], in test [2], in test [10], in test [9] and in test [4] was above 100000 nM in each case. For the same compound, the TGI in test [6] and in test [7] was above 100000 nM throughout.
